From US10508113B2, “Inhibitors of tyrosine kinase 2 mediated signaling” (AbbVie Inc., priority 2018, dated 2019)

Columns and labels:
[1] = target: T1, Jak1 (Homo sapiens, UniProt P23458); assay: Jak1 (PSTAT3 TF1) alpha screen assay: inhibition of IL-6 induced phosphorylation of STAT3 in TF1 cells; format: cell-based; settings: calculated from tabulated EC50 data (Jak1 / Tyk2)
T1 construct: endogenous in cells; host or cells: TF1 cells
Procedure, shortened: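 IL-6-starved TF1 cells were preincubated 30 min at 37 °C with compound (top final 25 μM, 8-point 1:5 series), then stimulated with IL-6 (100 ng/mL final) for 30 min at 37 °C. Lysates were read for pSTAT3 (Tyr705) by AlphaScreen SureFire. EC50 from percent-activity dose-response curves.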

[2] = target: T2, Jak2 (Homo sapiens, UniProt O60674); assay: Jak2 (PSTATS UT7) alpha screen assay: inhibition of EPO induced phosphorylation of STAT5 in UT7 cells; format: cell-based; settings: calculated from tabulated EC50 data (Jak2 / Tyk2)
T2 construct: Cell Type: UT7 cells engineered to express the erythropoietin (EPO) receptor; endogenous in cells; host or cells: UT7 cells engineered to express the EPO receptor
Experimental: 3. JAK2 (PSTATS UT7) ALPHA SCREEN ASSAY
Erythropoietin (EPO) is known to transduce its signal through EPO receptor via Jak2. Activity against Jak2 was therefore measured by determining inhibition of EPO induced phosphorylation of STATS in UT7 cells. […] Materials
Cell Type: UT7 cells engineered to express the erythropoietin (EPO) receptor; Culture Medium: Dulbecco's Modified Eagle Medium (DMEM) with 2 mM L-glutamine, 10 mM hydroxyethyl piperazineethanesulfonic acid (HEPES), 10% heat-inactivated fetal bovine serum (FBS) and Stock EPO (5000U in 250 uL, need 5U/mL, so add 250 μL to 1L of media); Assay Medium: 5% FBS ultra-low IgG and 1% Pen/Strep. Compounds were made-up in 100% dimethyl sulfoxide (DMSO).
Day One - Starve Cells: 4 Flasks for one 384 plate (spin down @1000 rpm for 10 minutes and add DMEM with no EPO).
Day Two—Compound Dilutions:
i. Manual 8-point 1:3 dilution curve: 5 mM top concentration dispensed in row A of a
Corning 96-well polypropylene plate, columns 2-12. DMSO dispensed in position A01 for low and high controls. Compounds were serially diluted 1:3 by adding 10 μL stock to 20 μL DMSO down the plate.
ii. Media dilution of compounds: Serially diluted compounds were diluted 1:50 in assay medium by adding 4 μL compound to 196 μL assay medium in a Corning 96-well polypropylene plate.
384 Alpha Screen Plate Set up: Transferred 2.5 μL/well of compound solution from last dilution plate. Replicates were vertical, so that one column of the 96-well dilution plate goes into one column on the 384-well plate twice. Plated 1×10^5 starved cells/well in 5μL. Washed cells in 10 mL Hank's balanced salt solution (HBSS) after spinning down. Counted live cells. Multiplied by dilution factor and 10,000 (constant) to get the concentration of viable cells. Multiplied by volume of cells to get the total number of live cells. Divided by 20,000,000 cells/mL to get the volume needed. Subtracted the original volume to get the volume to be added to get the final concentration of cells. Mixed in reservoir if needed, ensuring that all cell clumps are broken up (if not broken up, they were removed from the suspension). Cells were plated at 5 μL/well in gray Alpha Screen 384-well plate. Spinned the plate to bring the contents to the bottom of the wells at 400 rpm for 2 minutes. Top final compound concentration: 25 μM. Sealed with adhesive and tapped gently. Incubated cells at 37° C. for 30 minutes.
c. EPO Stimulation (p STATS)
Once cells were in incubator, immediately prepared working stock of EPO (1 nM final assay concentration). EPO stock=2860 nM of sterile filtered liquid in sodium citrate buffer (1 liter of ddH2O containing 5.9 g of sodium citrate, 5.8 g of sodium chloride and 0.06 g of citric acid). Diluted 1:22.72 by adding 4.44 stock EPO to 95.6 pi assay media, then dilute again […] depending on how much volume is needed for the assay plates. Used assay medium to bring to volume. Added 2.5 μL EPO to each well. Spinned plate at 400 rpm briefly; tap the plate gently before covering with an adhesive seal. Cells were incubated at 37° C. for 20 minutes.
Added 2.5 μL of 5X Lysis buffer to each well. Spinned plate at 400 rpm briefly. Incubated at room temperature (on orbital shaker) for 10 minutes.
e. Protein (A) Acceptor Beads Preparation: (Light sensitive)
Phosphorylated Signal Transducer and Activator of Transcription 5 (pSTAT5) was quantified using the PerkinElmer SureFire pSTATS (Tyrosine 694/699) Assay. Calculated total volume needed (wells×15 μL×30%). Divided total volume by 5 to get volume of activation buffer. Subtracted volume of activation buffer from total volume and divide by 40 to get volume of acceptor beads (add last). Total volume - acceptor bead volume - activation buffer to get volume of reaction buffer. Added 15 μL to each well and covered with foil. Shaked on orbital shaker for 2 hours at 500 rpm.
f. Streptavidin Donor Beads Preparation:
Calculated total volume needed (wells×6μL×30%). […]

T2 sequence (O60674 whole entry): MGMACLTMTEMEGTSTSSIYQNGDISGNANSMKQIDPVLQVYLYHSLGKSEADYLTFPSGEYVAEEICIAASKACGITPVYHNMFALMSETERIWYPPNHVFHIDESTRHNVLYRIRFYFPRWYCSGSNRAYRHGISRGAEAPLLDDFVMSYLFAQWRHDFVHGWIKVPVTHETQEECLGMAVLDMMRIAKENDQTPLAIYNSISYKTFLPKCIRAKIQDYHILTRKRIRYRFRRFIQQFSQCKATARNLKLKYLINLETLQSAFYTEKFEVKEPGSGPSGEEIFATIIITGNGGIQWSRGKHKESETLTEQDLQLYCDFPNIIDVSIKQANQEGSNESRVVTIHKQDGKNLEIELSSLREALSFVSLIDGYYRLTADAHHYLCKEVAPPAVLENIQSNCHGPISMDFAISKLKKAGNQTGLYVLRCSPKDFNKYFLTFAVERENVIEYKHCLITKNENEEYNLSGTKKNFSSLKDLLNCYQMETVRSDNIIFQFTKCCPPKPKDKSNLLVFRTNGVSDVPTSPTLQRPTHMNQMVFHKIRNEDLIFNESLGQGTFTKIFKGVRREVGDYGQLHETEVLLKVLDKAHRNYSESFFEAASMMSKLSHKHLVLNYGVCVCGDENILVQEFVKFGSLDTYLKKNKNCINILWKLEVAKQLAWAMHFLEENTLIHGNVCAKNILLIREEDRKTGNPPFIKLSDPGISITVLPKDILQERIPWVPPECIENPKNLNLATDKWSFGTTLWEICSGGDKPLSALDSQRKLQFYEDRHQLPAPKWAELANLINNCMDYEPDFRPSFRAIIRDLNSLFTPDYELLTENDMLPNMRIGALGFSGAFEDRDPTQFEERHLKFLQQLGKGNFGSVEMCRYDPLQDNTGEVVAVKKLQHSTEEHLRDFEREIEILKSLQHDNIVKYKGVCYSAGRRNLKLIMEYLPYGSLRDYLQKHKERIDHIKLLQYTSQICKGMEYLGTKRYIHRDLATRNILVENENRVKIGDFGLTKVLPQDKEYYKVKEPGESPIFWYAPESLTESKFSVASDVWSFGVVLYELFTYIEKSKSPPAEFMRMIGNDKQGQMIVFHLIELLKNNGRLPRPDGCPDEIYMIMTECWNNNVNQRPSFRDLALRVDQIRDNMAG
T1 sequence (P23458 whole entry): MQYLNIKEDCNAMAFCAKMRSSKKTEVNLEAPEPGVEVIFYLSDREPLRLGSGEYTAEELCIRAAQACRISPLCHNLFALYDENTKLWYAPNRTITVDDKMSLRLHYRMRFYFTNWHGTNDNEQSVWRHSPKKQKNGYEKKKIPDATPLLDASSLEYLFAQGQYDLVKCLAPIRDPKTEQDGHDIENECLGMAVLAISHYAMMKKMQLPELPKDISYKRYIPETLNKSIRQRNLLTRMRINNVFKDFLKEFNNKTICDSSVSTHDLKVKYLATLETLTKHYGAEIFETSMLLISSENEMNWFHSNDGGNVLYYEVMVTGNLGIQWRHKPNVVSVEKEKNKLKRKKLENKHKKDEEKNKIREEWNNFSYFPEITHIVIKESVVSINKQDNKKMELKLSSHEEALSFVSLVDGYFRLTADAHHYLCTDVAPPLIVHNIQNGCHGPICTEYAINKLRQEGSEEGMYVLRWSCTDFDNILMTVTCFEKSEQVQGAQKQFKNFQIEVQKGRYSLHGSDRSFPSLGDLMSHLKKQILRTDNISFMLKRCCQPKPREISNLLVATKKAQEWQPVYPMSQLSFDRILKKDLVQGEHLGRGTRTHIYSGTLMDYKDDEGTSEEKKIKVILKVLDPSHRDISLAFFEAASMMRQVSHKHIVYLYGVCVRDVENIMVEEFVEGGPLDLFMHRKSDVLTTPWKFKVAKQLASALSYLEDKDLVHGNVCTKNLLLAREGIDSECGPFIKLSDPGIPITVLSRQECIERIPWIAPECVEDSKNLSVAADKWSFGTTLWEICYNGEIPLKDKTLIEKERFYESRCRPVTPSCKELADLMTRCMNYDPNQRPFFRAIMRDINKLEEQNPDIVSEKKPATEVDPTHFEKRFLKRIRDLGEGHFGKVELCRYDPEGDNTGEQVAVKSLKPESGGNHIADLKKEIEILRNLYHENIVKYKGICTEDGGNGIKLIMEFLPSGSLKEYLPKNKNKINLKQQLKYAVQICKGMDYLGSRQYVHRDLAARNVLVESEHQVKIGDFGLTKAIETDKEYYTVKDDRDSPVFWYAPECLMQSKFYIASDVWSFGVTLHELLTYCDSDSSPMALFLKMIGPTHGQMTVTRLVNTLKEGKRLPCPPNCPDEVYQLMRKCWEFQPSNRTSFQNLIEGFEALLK

## CO[C@@]1(c2cc(O[C@@H](C)CCO)cc(-c3cn(C)c4cnc(NC(C)=O)cc34)n2)CCOC1 [Example 14.4, N-(3-(4-(((S)-4-hydroxybutan-2-yl)oxy)-6-((R)-3-methoxytetrahydrofuran-3-yl)pyridin-2-yl)-1-methyl-1H-pyrrolo[2,3-c]pyridin-5-yl)acetamide]
[1]
  Tyk2 selectivity over Jak1: 470-fold
[2]
  Tyk2 selectivity over Jak2: >187-fold

## CO[C@@]1(c2cc(OC[C@H](C)O)cc(-c3cn(C)c4cnc(NC(C)=O)cc34)n2)CCOC1 [Example 14.5, N-(3-(4-((S)-2-hydroxypropoxy)-6-((R)-3-methoxytetrahydrofuran-3-yl)pyridin-2-yl)-1-methyl-1H-pyrrolo[2,3-c]pyridin-5-yl)acetamide]
[1]
  Tyk2 selectivity over Jak1: 486-fold
[2]
  Tyk2 selectivity over Jak2: >171-fold

## CO[C@@]1(c2cc(OC[C@@H](C)O)cc(-c3cn(C)c4cnc(NC(C)=O)cc34)n2)CCOC1 [Example 14.6, N-(3-(4-((R)-2-hydroxypropoxy)-6-((R)-3-methoxytetrahydrofuran-3-yl)pyridin-2-yl)-1-methyl-1H-pyrrolo[2,3-c]pyridin-5-yl)acetamide]
[1]
  Tyk2 selectivity over Jak1: 563-fold
[2]
  Tyk2 selectivity over Jak2: >287-fold

## CO[C@@]1(c2cccc(-c3cn([C@H]4C[C@H](C#N)C4)c4cnc(NC(C)=O)cc34)n2)CCOC1 [Example 17, N-(1-((trans)-3-Cyanocyclobutyl)-3-(6-((R)-3-methoxytetrahydrofuran-3-yl)pyridin-2-yl)-1H-pyrrolo[2,3-c]pyridin-5-yl)acetamide]
[1]
  Tyk2 selectivity over Jak1: 871-fold
[2]
  Tyk2 selectivity over Jak2: >806-fold

## CO[C@@]1(c2cc(C(F)F)cc(-c3cn([C@H]4C[C@H](C#N)C4)c4cnc(NC(C)=O)cc34)n2)CCOC1 [Example 17.2, N-(1-((trans)-3-cyanocyclobutyl)-3-(4-(difluoromethyl)-6-((R)-3-methoxytetrahydrofuran-3-yl)pyridin-2-yl)-1H-pyrrolo[2,3-c]pyridin-5-yl)acetamide]
[1]
  Tyk2 selectivity over Jak1: 243-fold
[2]
  Tyk2 selectivity over Jak2: >174-fold

## CC(=O)Nc1cc2c(-c3cccc([C@]4(CO)CCOC4)n3)cn(C)c2cn1 [Example 21, (S)-N-(3-(6-(3-(Hydroxymethyl)tetrahydrofuran-3-yl)pyridin-2-yl)-1-methyl-1H-pyrrolo[2,3-c]pyridin-5-yl)acetamide]
[1]
  Tyk2 selectivity over Jak1: 35-fold
[2]
  Tyk2 selectivity over Jak2: >313-fold

## COCc1cc(-c2cn(C)c3cnc(NC(C)=O)cc23)nc([C@]2(CO)CCOC2)c1 [Example 22, (S)-N-(3-(6-(3-(Hydroxymethyl)tetrahydrofuran-3-yl)-4-(methoxymethyl)pyridin-2-yl)-1-methyl-1H-pyrrolo[2,3-c]pyridin-5-yl)acetamide]
[1]
  Tyk2 selectivity over Jak1: 72-fold
[2]
  Tyk2 selectivity over Jak2: >171-fold

## CO[C@@]1(c2cc(OC(F)F)cc(-c3cn(C)c4cnc(NC(C)=O)cc34)n2)CCOC1 [Example 22.2, (R)-N-(3-(4-(difluoromethoxy)-6-(3-methoxytetrahydrofuran-3-yl)pyridin-2-yl)-1-methyl-1H-pyrrolo[2,3-c]pyridin-5-yl)acetamide]
[1]
  Tyk2 selectivity over Jak1: 393-fold
[2]
  Tyk2 selectivity over Jak2: >281-fold

## CC(=O)Nc1cc2c(-c3cc(C(F)F)cc([C@]4(CO)CCOC4)n3)cn(C)c2cn1 [Example 22.5, (S)-N-(3-(4-(difluoromethyl)-6-(3-(hydroxymethyl)tetrahydrofuran-3-yl)pyridin-2-yl)-1-methyl-1H-pyrrolo[2,3-c]pyridin-5-yl)acetamide]
[1]
  Tyk2 selectivity over Jak1: 98-fold
[2]
  Tyk2 selectivity over Jak2: >347-fold

## COc1cc(-c2cn(C)c3cnc(NC(C)=O)cc23)nc([C@]2(CO)CCOC2)c1 [Example 22.6, (S)-N-(3-(6-(3-(hydroxymethyl)tetrahydrofuran-3-yl)-4-methoxypyridin-2-yl)-1-methyl-1H-pyrrolo[2,3-c]pyridin-5-yl)acetamide]
[1]
  Tyk2 selectivity over Jak1: 85-fold
[2]
  Tyk2 selectivity over Jak2: >192-fold

## COCCOc1cc(-c2cn(C)c3cnc(NC(C)=O)cc23)nc([C@]2(CO)CCOC2)c1 [Example 22.8, (S)-N-(3-(6-(3-(hydroxymethyl)tetrahydrofuran-3-yl)-4-(2-methoxyethoxy)pyridin-2-yl)-1-methyl-1H-pyrrolo[2,3-c]pyridin-5-yl)acetamide]
[1]
  Tyk2 selectivity over Jak1: 103-fold
[2]
  Tyk2 selectivity over Jak2: >136-fold

## CO[C@H](C)COc1cc(-c2cn(C)c3cnc(NC(C)=O)cc23)nc([C@]2(OC)CCOC2)c1 [Example 22.10, N-(3-(4-((R)-2-methoxypropoxy)-6-((R)-3-methoxytetrahydrofuran-3-yl)pyridin-2-yl)-1-methyl-1H-pyrrolo[2,3-c]pyridin-5-yl)acetamide]
[1]
  Tyk2 selectivity over Jak1: >272-fold
[2]
  Tyk2 selectivity over Jak2: >272-fold

## COCc1cc(-c2cn(C)c3cnc(NC(=O)CO)cc23)nc([C@]2(OC)CCOC2)c1 [Example 24, (R)-2-hydroxy-N-(3-(4-(methoxymethyl)-6-(3-methoxytetrahydrofuran-3-yl)pyridin-2-yl)-1-methyl-1H-pyrrolo[2,3-c]pyridin-5-yl)acetamide]
[1]
  Tyk2 selectivity over Jak1: >1087-fold
[2]
  Tyk2 selectivity over Jak2: >272-fold

## COCCOc1cc(-c2cn(C)c3cnc(NC(C)=O)cc23)nc([C@]2(OC)CCOC2)c1 [Example 25, (R)-N-(3-(4-(2-methoxyethoxy)-6-(3-methoxytetrahydrofuran-3-yl)pyridin-2-yl)-1-methyl-1H-pyrrolo[2,3-c]pyridin-5-yl)acetamide]
[1]
  Tyk2 selectivity over Jak1: 1960-fold
[2]
  Tyk2 selectivity over Jak2: >1000-fold

## CO[C@@]1(c2cc(C(F)F)cc(-c3cn(C)c4cnc(NC(=O)CO)cc34)n2)CCOC1 [Example 26, (R)-N-(3-(4-(difluoromethyl)-6-(3-methoxytetrahydrofuran-3-yl)pyridin-2-yl)-1-methyl-1H-pyrrolo[2,3-c]pyridin-5-yl)-2-hydroxyacetamide]
[1]
  Tyk2 selectivity over Jak1: >500-fold
[2]
  Tyk2 selectivity over Jak2: >500-fold
